In brackets after ≈: the same amount, converted by molar mass.
Tests used:
Format in all cases: functional
Mus musculus [1] = assay: Tested for oral activity against Staphylococcus aureus smith infection in mice after single subcutaneous dose(SSC)
Escherichia coli [2] = assay: In vitro antimicrobial activity against Escherichia coli GC 2205 strain
Enterobacter cloacae = assay: In vitro antimicrobial activity against Enterobacter cloacae GC 2209 strain
Enterococcus faecium = assay: In vitro antimicrobial activity against Enterococcus faecium GC 1182 strain
Staphylococcus aureus [3] = assay: In vitro antimicrobial activity against Staphylococcus aureus GC 2220 strain; conditions: Staphylococcus aureus; read-out: MIC
Escherichia coli [4] = assay: In vitro antimicrobial activity against Escherichia coli GC 1792 strain; conditions: Escherichia coli; read-out: MIC
Pseudomonas aeruginosa [5] = assay: In vitro antimicrobial activity against Pseudomonas aeruginosa GC 1544 strain; conditions: Pseudomonas aeruginosa; read-out: MIC
Morganella morganii = assay: In vitro antimicrobial activity against Morganella morganii GC 2213 strain; conditions: Morganella morganii; read-out: MIC
Pseudomonas aeruginosa [6] = assay: In vitro antimicrobial activity against Pseudomonas aeruginosa ATCC 27853 strain; conditions: Pseudomonas aeruginosa, ATCC 27853; read-out: MIC
Mus musculus [7] = assay: Tested for oral activity against Staphylococcus aureus smith infection in mice after single oral dose(SOD); conditions: Mus musculus, po; read-out: ED50
Staphylococcus aureus [8] = assay: In vitro antimicrobial activity against Staphylococcus aureus ATCC 29213 strain
[9] = Ratio of ED50 of single oral dose to ED50 of single subcutaneous dose against Staphylococcus aureus smith infection in mice
Enterococcus faecalis = assay: In vitro antimicrobial activity against Enterococcus faecalis GC 842 strain
Mus musculus [10] = species: Mus musculus; assay: animal or person; conditions: Mus musculus, po; read-out: ED50
Description: Tested for oral activity against Escherichia coli #311 infection in mice after single oral dose(SOD)

Escherichia coli [11] = assay: In vitro antimicrobial activity against Escherichia coli ATCC 25922 strain
[12] = test system: Acinetobacter calcoaceticus; assay: In vitro antimicrobial activity against Acinetobacter calcoaceticus GC 756 strain
Citrobacter freundii = assay: In vitro antimicrobial activity against Citrobacter freundii GC 2211 strain; conditions: Citrobacter freundii; read-out: MIC
[13] = test system: Stenotrophomonas maltophilia; assay: In vitro antimicrobial activity against Xanthomonas maltophilia GC 562 strain
Mus musculus [14] = species: Mus musculus; assay: animal or person; conditions: Mus musculus; read-out: ED50
Description: Tested for oral activity against Escherichia coli #311 infection in mice after single subcutaneous dose(SSC)

Mus musculus [15] = assay: Tested for oral activity against Staphylococcus aureus smith infection in mice after single oral dose(SOD); 0.83-1.7
Mus musculus [16] = assay: Tested for oral activity against Staphylococcus aureus smith infection in mice after single subcutaneous dose(SSC); 0.1-0.21
Mus musculus [17] = assay: Tested for oral activity against Staphylococcus aureus smith infection in mice after single subcutaneous dose(SSC); 0.06-0.21
[18] = Enterococcus faecium, read-out: MIC
[19] = Enterococcus faecalis, read-out: MIC
[20] = Acinetobacter calcoaceticus, read-out: MIC

| Structure (SMILES) | MIC (Escherichia coli [2]) | MIC (Enterobacter cloacae) | MIC (Enterococcus faecium; [18]) | MIC (Staphylococcus aureus [3]) | MIC (Escherichia coli [4]) | MIC (Pseudomonas aeruginosa [5]) | MIC (Morganella morganii) | MIC (Pseudomonas aeruginosa [6]) | ED50 (Mus musculus [7]) | MIC (Staphylococcus aureus [8]) | Ratio [9] | MIC (Enterococcus faecalis; [19]) | ED50 (Mus musculus [10]) | MIC (Escherichia coli [11]) | MIC (Citrobacter freundii) | MIC [13] | ED50 (Mus musculus [14]) | ED50 (Mus musculus [1]; Mus musculus, read-out: ED50) | MIC [12, 20] | also measured |
| --- | --- | --- | --- | --- | --- | --- | --- | --- | --- | --- | --- | --- | --- | --- | --- | --- | --- | --- | --- | --- |
| C[C@H]1C(SC2COC(CN)C2)=C(C(=O)O)N2C(=O)[C@H]([C@@H](C)O)C12 (stereo in doubt; trans) | < 0.06 mg/L | < 0.06 mg/L | 128 mg/L (≈ 374 µM) | 8 mg/L (≈ 23.4 µM) | 0.06 mg/L (≈ 0.175 µM) | 8 mg/L (≈ 23.4 µM) | 0.25 mg/L (≈ 0.73 µM) | 4 mg/L (≈ 11.7 µM) | 1.7 mg/kg | < 0.06 mg/L | 16 | 2 mg/L (≈ 5.84 µM) | 3.7 mg/kg | < 0.06 mg/L | 0.06 mg/L (≈ 0.175 µM) | > 128 mg/L | 0.27 mg/kg |  |  | ED50 (Mus musculus [1]): 0.11 mg/kg; MIC [12]: 1 mg/L (≈ 2.92 µM) |
| C[C@@H](N)C(=O)NC[C@H]1OCC[C@H]1SC1=C(C(=O)O)N2C(=O)[C@H]([C@@H](C)O)C2[C@H]1C (stereo not given in full) | ≤ 0.06 mg/L | 0.25 mg/L (≈ 0.605 µM) | > 128 mg/L | 8 mg/L (≈ 19.3 µM) | ≤ 0.06 mg/L | 64 mg/L (≈ 155 µM) | 1 mg/L (≈ 2.42 µM) | 32 mg/L (≈ 77.4 µM) | 0.09 mg/kg | 0.12 mg/L (≈ 0.29 µM) | 2.2 | 4 mg/L (≈ 9.67 µM) | 0.55 mg/kg | ≤ 0.06 mg/L | 1 mg/L (≈ 2.42 µM) | > 128 mg/L | 0.28 mg/kg | 0.04 mg/kg | 16 mg/L (≈ 38.7 µM) |  |
| C[C@@H](N)C(=O)NC[C@@H]1C[C@H](SC2=C(C(=O)O)N3C(=O)[C@H]([C@@H](C)O)C3[C@H]2C)CO1 (stereo not given in full) | 0.12 mg/L (≈ 0.29 µM) | 0.25 mg/L (≈ 0.605 µM) | > 128 mg/L | 8 mg/L (≈ 19.3 µM) | 0.06 mg/L (≈ 0.145 µM) | 64 mg/L (≈ 155 µM) | 1 mg/L (≈ 2.42 µM) | 32 mg/L (≈ 77.4 µM) |  | < 0.06 mg/L | 8.3 | 4 mg/L (≈ 9.67 µM) |  | < 0.06 mg/L | 1 mg/L (≈ 2.42 µM) | > 128 mg/L |  |  | 8 mg/L (≈ 19.3 µM) | ED50 (Mus musculus [15]): 0.83 mg/kg; ED50 (Mus musculus [16]): 0.1 mg/kg |
| CC[C@@H](C)[C@@H](N)C(=O)NC[C@H]1OCC[C@H]1SC1=C(C(=O)O)N2C(=O)[C@H]([C@@H](C)O)C2[C@H]1C (stereo not given in full) | ≤ 0.06 mg/L |  | > 128 mg/L | 32 mg/L (≈ 70.2 µM) | 0.25 mg/L (≈ 0.549 µM) | 128 mg/L (≈ 281 µM) | 2 mg/L (≈ 4.39 µM) | 64 mg/L (≈ 140 µM) | 0.21 mg/kg | 0.25 mg/L (≈ 0.549 µM) | 0.75 | 2 mg/L (≈ 4.39 µM) | 0.58 mg/kg | ≤ 0.06 mg/L | 4 mg/L (≈ 8.78 µM) | > 128 mg/L | 1.1 mg/kg | 0.28 mg/kg | 64 mg/L (≈ 140 µM) |  |
| CC(C)[C@@H](N)C(=O)NC[C@H]1OCC[C@H]1SC1=C(C(=O)O)N2C(=O)[C@H]([C@@H](C)O)C2[C@H]1C (stereo not given in full) | ≤ 0.06 mg/L | 0.5 mg/L (≈ 1.13 µM) | > 128 mg/L | 8 mg/L (≈ 18.1 µM) | 0.12 mg/L (≈ 0.272 µM) | 128 mg/L (≈ 290 µM) | 1 mg/L (≈ 2.26 µM) | 32 mg/L (≈ 72.5 µM) | 0.1 mg/kg | 0.25 mg/L (≈ 0.566 µM) | 1.4 | 2 mg/L (≈ 4.53 µM) | 0.31 mg/kg | ≤ 0.06 mg/L | 1 mg/L (≈ 2.26 µM) | > 128 mg/L | 0.29 mg/kg | 0.07 mg/kg | 16 mg/L (≈ 36.2 µM) |  |
| C[C@@H](O)[C@H]1C(=O)N2C(C(=O)O)=C(S[C@@H]3CCO[C@@H]3CN)[C@H](C)[C@H]12 | ≤ 0.06 mg/L | ≤ 0.06 mg/L |  | 1 mg/L (≈ 2.92 µM) | ≤ 0.06 mg/L | 16 mg/L (≈ 46.7 µM) | 0.5 mg/L (≈ 1.46 µM) | 8 mg/L (≈ 23.4 µM) | 0.88 mg/kg | ≤ 0.06 mg/L | 22 |  | 3.8 mg/kg | ≤ 0.06 mg/L | ≤ 0.06 mg/L | > 128 mg/L | 0.34 mg/kg | 0.04 mg/kg | 2 mg/L (≈ 5.84 µM) | MIC (Enterococcus faecium): 64 mg/L (≈ 187 µM); MIC (Enterococcus faecalis): 0.5 mg/L (≈ 1.46 µM) |
| C[C@@H](N)C(=O)NC[C@@H]1COC[C@@H]1SC1=C(C(=O)O)N2C(=O)[C@H]([C@@H](C)O)C2[C@H]1C (stereo not given in full) | 0.25 mg/L (≈ 0.605 µM) | 1 mg/L (≈ 2.42 µM) | > 128 mg/L | 8 mg/L (≈ 19.3 µM) | 0.25 mg/L (≈ 0.605 µM) | 128 mg/L (≈ 310 µM) | 2 mg/L (≈ 4.84 µM) | 64 mg/L (≈ 155 µM) | 4.5 mg/kg | 0.5 mg/L (≈ 1.21 µM) | 41 | 16 mg/L (≈ 38.7 µM) |  | 0.25 mg/L (≈ 0.605 µM) | 4 mg/L (≈ 9.67 µM) | > 128 mg/L |  | 0.11 mg/kg | 16 mg/L (≈ 38.7 µM) |  |
| C[C@@H](N)C(=O)NC[C@@H]1C[C@@H](SC2=C(C(=O)O)N3C(=O)[C@H]([C@@H](C)O)C3[C@H]2C)CO1 (stereo not given in full) | 0.12 mg/L (≈ 0.29 µM) | 0.12 mg/L (≈ 0.29 µM) | > 128 mg/L | 4 mg/L (≈ 9.67 µM) | 0.12 mg/L (≈ 0.29 µM) | 64 mg/L (≈ 155 µM) | 1 mg/L (≈ 2.42 µM) | 32 mg/L (≈ 77.4 µM) |  | < 0.06 mg/L | 14 | 4 mg/L (≈ 9.67 µM) |  | < 0.06 mg/L | 0.5 mg/L (≈ 1.21 µM) | > 128 mg/L |  |  | 8 mg/L (≈ 19.3 µM) | ED50 (Mus musculus [17]): 0.06 mg/kg; ED50 (Mus musculus [15]): 0.83 mg/kg |

Reference: ChEMBL document CHEMBL1130465, “Peptidic prodrugs of novel aminomethyl-THF 1-methylcarbapenems” (1997)
